According to patent publication US8435987B2, “Pyrazolo-pyridinone and pyrazolo-pyrazinone compounds as P38 modulators and methods of use thereof” (Amgen Inc., priority 2007, dated 2013):
Where two headings read alike, the source gives them in different places.

Columns and labels:
[1] = test system: secreted IL-8 by whole blood activated with TNF-α; assay: Inhibition of TNF-α induced IL-8 in 50% human whole blood; format: cell-based
Experimental: Inhibition of TNF-α Induced IL-8 in 50% Human Whole Blood
Test compounds were evaluated in vitro for the ability to inhibit the production of secreted IL-8 by whole blood activated with TNF-α. Fresh human whole blood was obtained from healthy, non-medicated volunteers in sodium heparin tubes.
Compound Dilution—Assay Procedure
Test compounds are serially diluted 1:3 in DMSO and then diluted 1:250 into R10 (RPMI 1640, 10% human serum AB, 1× pen/strep/glutamine) to the 4× working concentration to be used in the assay. 100 ul heparinized whole blood is plated into wells of 96 well flat bottom plates. 50 ul of either 4× compound or DMSO control (Final DMSO concentration is 0.1%) are added to the appropriate wells. Plates are incubated for 1 hour at 37 degrees Celsius. 50 ul of 4× TNF-α (4 nM TNF-α, for a final concentration of 1 nM) or control (media alone) is added to the appropriate wells (Total volume=200 ul). Plates are incubated overnight (16-18 hours). 100 ul of supernatant is collected and stored in 96-well round bottom polypropylene plates at −80 degrees Celsius or assayed immediately for IL-8.
Cytokines are measured on antibody (Ab) sandwich ECL based 96-well detection plates. 20 ul of supernatant are added to plate and plate is sealed and shaken at RT for 1 hour. 130 ul of detection Ab cocktail is added and plates are sealed and shaken for 1 hour in the dark at RT. Plates are read on MSD Sector HTS instrument. Data are analyzed and IC50 values generated using Activity Base and Xl-fit programs.

[2] = test system: TNF-α secretion by LPS-treated THP1 cells; assay: Lipopolysaccharide-activated THP1 cell TNF production assay; format: cell-based; details: Homo sapiens, THP-1, 3 hours, read-out: IC50 in the THP-1 cellular TNF production assay
Experimental: Lipopolysaccharide-Activated THP1 Cell TNF Production Assay
THP1 cells were resuspended in fresh THP1 media (RPMI 1640, 10% heat-inactivated FBS, 1×PGS, 1×NEAA, plus 30 μM βME) at a concentration of 1.5×10^6 cells per mL. One hundred microliters of cells per well were plated in a polystyrene 96-well tissue culture plate. 1.5 micrograms per mL of bacterial LPS was prepared in THP1 media and transferred to the first 11 columns of a 96-well polypropylene plate. Column 12 contained only THP1 media for the LO control. Compounds were dissolved in 100% DMSO and serially diluted 3 fold in a polypropylene 96-well microtiter plate (drug plate). Columns 6 and 12 were reserved as controls (HI controls and LO controls respectively) and contained only DMSO. 10 μL of LPS followed by one microliter of inhibitor compound from the drug plate was transferred to the cell plate. The treated cells were induced to synthesize and secrete TNF-α in a 37° C. humidified incubator with 5% CO2 for 3 hours. Fifty microliters of conditioned media was transferred to a 96-well MULTI-ARRAY™ 96-well small spot plate—custom coated with MAB610 containing 100 μL of 2× Read Buffer P supplemented with 0.34 nM AF210NA polyclonal Ab labeled with ruthenium (MSD-Sulfo-TAG™—NHS ester). After an overnight incubation at room temperature with shaking, the reaction was read on the Sector Imager™ 6000. […] The amount of secreted TNF-α in the presence of AMG compounds compared with that in the presence of DMSO vehicle alone (HI control) was calculated using the formula: % control (POC)=(cpd−average LO)/(average HI−averageLO)*100. Data (consisting of POC and inhibitor concentration in μM) was fitted to a 4-parameter equation (y=A+((B−A)/(1+((x/C)^D))), where A is the minimum y (POC) value, B is the maximum y (POC), C is the x (cpd concentration) at the point of inflection and D is the slope factor) using a Levenburg-Marquardt non-linear regression algorithm.

[3] = 50% human whole blood, TNF-α (1 nM final) induced IL-8, 16-18 hours, read-out: WB TNF/IL8 IC50
[4] = Homo sapiens, read-out: IC50, TNF-α induced IL-8 in 50% human whole blood

Structure (SMILES) | IC50 [1, 3] [nM] | IC50 [1, 4] [nM] | IC50 [2] [nM]
CNc1noc2c(-c3cc4cnn(-c5c(F)cccc5F)c4n(C)c3=O)c(C)ccc12 [Example 5, 1-(2,6-difluorophenyl)-7-methyl-5-(6-methyl-3-(methylamino)-1,2-benzisoxazol-7-yl)-1,7-dihydro-6H-pyrazolo[3,4-b]pyridin-6-one] | 2.7 | ≤ 100 | ≤ 100
Cc1ccc2c(NC3CC3)noc2c1-c1cc2cnn(-c3c(F)cccc3F)c2n(C)c1=O [Example 1, 5-(3-(cyclopropylamino)-6-methylbenzo[d]isoxazol-7-yl)-1-(2,6-difluorophenyl)-7-methyl-1H-pyrazolo[3,4-b]pyridin-6(7H)-one] | 1.1 | ≤ 100 | ≤ 100
